Test [1] deals with T1, acetylcholine binding protein (Ls-AChBP) (Lymnaea stagnalis, UniProt P58154). Put plainly: radioligand binding, HEK-293 cell homogenate. To be noted: cited from earlier work. Further details: Ls-AChBP linked to a 5HT3 receptor ion channel (Ls-AChBP-5HT3 receptor chimera).
The target in test [2] is T1, acetylcholine binding protein (Ls-AChBP). Put plainly: biochemical.

For 2 compounds, Kd and Ki results are on record in PMC3956608 (PLoS ONE, 2014).

T1 sequence (P58154 20-229): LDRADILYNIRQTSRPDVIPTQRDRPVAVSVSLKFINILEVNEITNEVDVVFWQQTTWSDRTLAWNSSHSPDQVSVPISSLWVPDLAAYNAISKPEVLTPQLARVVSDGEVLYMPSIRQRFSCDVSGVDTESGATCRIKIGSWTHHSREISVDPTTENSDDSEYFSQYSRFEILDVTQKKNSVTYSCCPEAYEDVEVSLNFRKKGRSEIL

Turning to `Clc1ccc(C2CC3CCC2N3)cn1` (centres unmarked) [[3H]-epibatidine], the Kd in test [1] was 0.097 nM. For the compound `CC(=O)OCC[N+](C)(C)C` [acetylcholine], the affinity in test [2] corresponds to a Ki of 1500 nM. In other words, the single-digit micromolar range.

A word on the Kd: it is the equilibrium constant for the complex coming apart. In general, Ki refers to the dissociation constant of the complex between target and ligand, obtained from inhibition or displacement.
